Source: patent publication US20250026748A1, “N-(5-SUBSTITUTED-[(1,3,4-THIADIAZOLYL) OR (THIAZOLYL)])(SUBSTITUTED)CARBOXAMIDE COMPOUNDS AND USE THEREOF FOR INHIBITING HUMAN POLYMERASE THETA” (Repare Therapeutics Inc., priority 2021, published 2025)

Biological target: PolQ ATPase enzyme (1-894) (Homo sapiens (Human), UniProt O75417)
Assay: Polθ ATPase enzymatic assay (0.5 nM enzyme concentration), ADP-Glo
Format: biochemical
Settings: average IC50; 0.5 nM PolQ ATPase enzyme (1-894)
Experimental: PolQ ATPase enzyme (1-894) at 0.5 nM is incubated with a 10-point concentration response of inhibitors for 15 min at rt in the following buffer: 50 mM Tris Cl pH 7.5, 10% glycerol, 5 mM DTT, 10 mM MgCl2, 0.1 mg/ml BSA. Following pre-incubation with inhibitors, DNA (Fork C) at 20 nM and ATP at 100 μM are added to start the reaction. Enzymatic reaction proceeds at rt for 180 min ATP consumption is measured using the ADP-Glo assay from Promega. Luminescence is read on the Envision and IC50 are determined using the variable slope 4-parameters equation.
Oligos are annealed by heating at 9500 for 5 min in the following buffer (10 mM Tris-HCl pH7.5, 50 mM NaCl, 1 mM EDTA) and cooled to rt. […]

Sequence of PolQ ATPase enzyme (1-894) (O75417 1-894): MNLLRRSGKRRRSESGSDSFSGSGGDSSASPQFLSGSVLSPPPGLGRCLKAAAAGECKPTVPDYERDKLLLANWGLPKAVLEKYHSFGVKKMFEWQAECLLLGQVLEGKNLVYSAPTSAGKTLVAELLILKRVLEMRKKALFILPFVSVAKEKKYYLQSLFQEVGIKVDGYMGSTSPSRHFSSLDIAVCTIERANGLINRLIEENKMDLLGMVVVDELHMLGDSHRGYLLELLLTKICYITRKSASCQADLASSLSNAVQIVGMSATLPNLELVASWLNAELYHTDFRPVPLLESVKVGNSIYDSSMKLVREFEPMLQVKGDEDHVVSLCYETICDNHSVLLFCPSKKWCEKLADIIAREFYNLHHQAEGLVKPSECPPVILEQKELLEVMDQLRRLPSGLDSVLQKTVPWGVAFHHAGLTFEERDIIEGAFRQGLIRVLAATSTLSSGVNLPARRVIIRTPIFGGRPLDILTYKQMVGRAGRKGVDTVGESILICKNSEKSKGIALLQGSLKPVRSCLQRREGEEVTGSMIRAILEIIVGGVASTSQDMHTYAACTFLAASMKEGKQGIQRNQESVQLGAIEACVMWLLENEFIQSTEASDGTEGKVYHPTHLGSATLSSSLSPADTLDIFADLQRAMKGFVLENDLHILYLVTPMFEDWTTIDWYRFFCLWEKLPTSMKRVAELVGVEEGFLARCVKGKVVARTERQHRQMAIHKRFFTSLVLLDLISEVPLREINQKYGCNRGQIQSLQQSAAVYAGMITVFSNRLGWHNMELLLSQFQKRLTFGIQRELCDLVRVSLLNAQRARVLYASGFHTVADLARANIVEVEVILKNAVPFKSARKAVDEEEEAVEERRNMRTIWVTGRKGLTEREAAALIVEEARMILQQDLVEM

First: COc1cnc(Cl)cc1-c1cnccc1C(=O)Nc1nnc(C2C[C@H]2c2ccc(C#N)nc2)s1 (some centres unmarked) [Compound 318]
Second: COc1cnc(C(F)F)cc1-c1cnccc1C(=O)Nc1nnc([C@@H]2C[C@H]2c2ccc(C#N)cc2)s1 [Compound 303]
The IC50 of the first is 4.4-fold higher: 4.8 nM for the first, 1.1 nM for the second. The second is the more potent here.

Compared with COc1cnc(C(F)F)cc1-c1cc(-c2nn(C)cc2C)ncc1C(=O)Nc1nnc(C#CC2CC2)s1 [Compound 351], COc1cnc(C(F)F)cc1-c1cc(-c2cn(C)cn2)ncc1C(=O)Nc1nnc(C#CC2CC2)s1 [Compound 187] is higher in IC50: under 0.25 nM for the first, 0.91 nM for the second. The first is the more potent here.

Compared with COc1cnc(C(F)F)cc1-c1cc(N2C(=O)[C@H]3CC[C@@H]2C3)ncc1C(=O)Nc1nnc(C#CC2CC2)s1 [Compound 365], COc1cnc(C(F)F)cc1-c1cc(N2CC[C@H]3C[C@H]3C2=O)ncc1C(=O)Nc1nnc(C#CC2CC2)s1 [Compound 383] is lower in IC50: 100 nM for the first, under 0.25 nM for the second.

COc1cnc(C(F)F)cc1-c1cc(Oc2cnn(C)c2)ncc1C(=O)Nc1nnc(C#CC2CC2)s1 [Compound 271] and COc1cnc(C(F)F)cc1-c1cc(Oc2ccn(C)n2)ncc1C(=O)Nc1nnc(C#CC2CC2)s1 [Compound 175] are within 1.5-fold of each other in IC50: 0.64 nM for the first, 0.51 nM for the second.

Compared with COc1cnc(Cl)cc1-c1cn2c(C#N)cnc2cc1C(=O)Nc1nnc(C#CC2CC2)s1 [Compound 341], COc1cnc(Cl)cc1-c1cc(C(N)=O)ncc1C(=O)Nc1nnc(C#CC2CC2)s1 [Compound 73] is 7.6-fold lower in IC50: 3.2 nM for the first, 0.42 nM for the second.

Compared with Cc1nnc(-n2cc(-c3cc(C(F)(F)F)ccc3Cl)c(C(=O)Nc3nnc(C#CC4CC4)s3)cc2=O)o1 [Compound 429], COc1cnc(C(F)(F)F)cc1-c1cn(C)c(=O)cc1C(=O)Nc1nnc(C#CC2CC2)s1 [Compound 59] is higher in IC50: under 0.25 nM for the first, 1.89 nM for the second.

Compared with COc1cnc(C(F)F)cc1-c1cc(N2CCCC(C)(C)C2=O)ncc1C(=O)Nc1nnc(C#CC2CC2)s1 [Compound 442], COc1cnc(C(F)F)cc1-c1cc(N2CCN(C)C(C)(C)C2=O)ncc1C(=O)Nc1nnc(C#CC2CC2)s1 [Compound 367] is higher in IC50: under 0.25 nM for the first, 0.27 nM for the second.

Going from COc1cnc(C(F)F)cc1-c1cc(C#CCN2CCS(=O)(=O)CC2)ccc1C(=O)Nc1nnc(C#CC2CC2)s1 [Compound 242] to COc1cnc(C(F)F)cc1-c1cc(C#CCN2CCOCC2)ccc1C(=O)Nc1nnc(C#CC2CC2)s1 [Compound 219], the IC50 falls from 0.35 nM to under 0.25 nM.

Going from COc1cnc(Cl)cc1-c1cc(N2CCCC2=O)ccc1C(=O)Nc1nnc(C#CC2CC2)s1 [Compound 39] to COc1cnc(Cl)cc1-c1cc(CS(C)(=O)=O)ccc1C(=O)Nc1nnc(C#CC2CC2)s1 [Compound 310], the IC50 rises from 0.27 nM to 4.4 nM (16-fold).

First: COc1cnc(C(F)F)cc1-c1cc(OC[C@@H]2CCOC2)ncc1C(=O)Nc1nnc(C#CC2CC2)s1 [Compound 148]
Second: COc1cnc(C(F)F)cc1-c1cc(C2CCOCC2)ncc1C(=O)Nc1nnc(C#CC2CC2)s1 [Compound 270]
The IC50 of the first is 11-fold lower: 0.93 nM for the first, 9.9 nM for the second.

First: COc1cnc(C(F)F)cc1-c1cc(C#CC2CCOCC2)ncc1C(=O)Nc1nnc(C#Cc2cc(C)[nH]n2)s1 [Compound 378]
Second: C#Cc1cc(-c2cc(C(F)F)ncc2OC)c(C(=O)Nc2nnc(C#CC3CC3)s2)cn1 [Compound 269]
The IC50 of the first is lower: under 0.25 nM for the first, 0.38 nM for the second. The first is the more potent here.

Compared with COc1cnc(C(F)F)cc1-c1cc(N2CCOCC2=O)ncc1C(=O)Nc1nnc(C#Cc2ccc(Cl)cc2)s1 [Compound 176], COc1cnc(C(F)F)cc1-c1cc(N2CCCN(C)CC2=O)ncc1C(=O)Nc1nnc(C#CC2CC2)s1 [Compound 441] is 53-fold lower in IC50: 23 nM for the first, 0.43 nM for the second.

First: COc1cnc(C(F)F)cc1-c1cc(CCC2(O)CCS(=O)(=O)CC2)ccc1C(=O)Nc1nnc(C#CC2CC2)s1 [Compound 256]
Second: COc1cnc(C(F)F)cc1-c1cc(CN2CCOCC2=O)ccc1C(=O)Nc1nnc(C#CC2CC2)s1 [Compound 227]
The IC50 of the first is 2.4-fold lower: 2.9 nM for the first, 6.9 nM for the second. The first is the more potent here.

COc1cnc(C(F)F)cc1-c1cc(N2CC3CC3CC2=O)ncc1C(=O)Nc1nnc(C#CC2CC2)s1 (centres unmarked) [Compound 388] and COc1cnc(C(F)F)cc1-c1cc(N2CC[C@@H]3C[C@@H]3C2=O)ncc1C(=O)Nc1nnc(C#CC2CC2)s1 [Compound 384] cannot be ordered by IC50: under 0.25 nM for the first, under 0.25 nM for the second.

Compared with COc1cnc(C(F)F)cc1-c1cc(-c2cnn(CC#N)c2)ncc1C(=O)Nc1nnc(C#CC2CC2)s1 [Compound 419], COc1cnc(C(F)F)cc1-c1cc(-c2cc[nH]n2)ncc1C(=O)Nc1nnc(C#CC2CC2)s1 [Compound 145, N-(5-(cyclopropylethynyl)-1,3,4-thiadiazol-2-yl)-2′-(difluoromethyl)-5′-methoxy-6-(1H-pyrazol-3-yl)-[4,4′-bipyridine]-3-carboxamide] is lower in IC50: 0.72 nM for the first, under 0.25 nM for the second.

Compared with COc1cnc(Cl)cc1-c1cc(C#CC2(O)CCOCC2)ccc1C(=O)Nc1nnc(C#CC2CC2)s1 [Compound 53], COc1cnc(Cl)cc1-c1cc(C#CC2(O)CCS(=O)(=O)CC2)ccc1C(=O)Nc1nnc(C#CC2CC2)s1 [Compound 288] is lower in IC50: 0.31 nM for the first, under 0.25 nM for the second.

First: COc1cnc(C(F)F)cc1-c1cc(-c2nnc(C)o2)ccc1C(=O)Nc1nnc(C#CC2CC2)s1 [Compound 111, N-(5-(cyclopropylethynyl)-1,3,4-thiadiazol-2-yl)-2-(2-(difluoromethyl)-5-methoxypyridin-4-yl)-4-(5-methyl-1,3,4-oxadiazol-2-yl)benzamide]
Second: COc1cnc(C(F)F)cc1-c1cc(Nc2nnc(C)o2)ccc1C(=O)Nc1nnc(C#CC2CC2)s1 [Compound 152]
The IC50 of the first is 1.5-fold lower: 0.78 nM for the first, 1.2 nM for the second.

Going from COc1cnc(C(F)F)cc1-c1cc(C#CC(C)(C)CO)ccc1C(=O)Nc1nnc(C#CC2CC2)s1 [Compound 240] to CNc1ccc(C(=O)Nc2nnc(C#CC3CC3)s2)c(-c2cc(C(F)F)ncc2OC)c1 [Compound 243], the IC50 rises from 0.73 nM to 15 nM (21-fold). The first is the more potent here.

First: COc1cnc(Cl)cc1-c1cn2ncnc2cc1C(=O)Nc1nnc(C#Cc2cc(C)[nH]n2)s1 [Compound 97]
Second: COc1cnc(C)cc1-c1cnccc1C(=O)Nc1nnc(C#Cc2cc(C)[nH]n2)s1 [Compound 85]
The IC50 of the first is 1.8-fold higher: 2 nM for the first, 1.1 nM for the second. The second is the more potent here.

Going from COc1cnc(C(F)F)cc1-c1cc(-c2ccn(C)n2)cnc1C(=O)Nc1nnc(C#CC2CC2)s1 [Compound 156] to COc1cnc(C(F)F)cc1-c1cc(-c2ccn(C)n2)ncc1C(=O)Nc1ncc(C#CC2CC2)s1 [Compound 117, N-(5-(cyclopropylethynyl)thiazol-2-yl)-2′-(difluoromethyl)-5′-methoxy-6-(1-methyl-1H-pyrazol-3-yl)-[4,4′-bipyridine]-3-carboxamide], the IC50 rises from 1.1 nM to 2 nM (1.8-fold). The first is the more potent here.

First: COc1cnc(C(F)F)cc1-c1cc(N2CC3(COC3)C2)ncc1C(=O)Nc1nnc(C#CC2CC2)s1 [Compound 162]
Second: COc1cnc(C(F)F)cc1-c1cc(N2CC3(CCC2=O)CC3)ncc1C(=O)Nc1nnc(C#CC2CC2)s1 [Compound 426]
The IC50 of the first is 33-fold higher: 13 nM for the first, 0.39 nM for the second. The second is the more potent here.

First: COc1cnc(C(F)F)cc1-c1cn2ncnc2cc1C(=O)Nc1nnc(C#CC2CC2)s1 [Compound 36, N-(5-(cyclopropylethynyl)-1,3,4-thiadiazol-2-yl)-6-(2-(difluoromethyl)-5-methoxypyridin-4-yl)-[1,2,4]triazolo[1,5-a]pyridine-7-carboxamide]
Second: COc1cnc(C(F)F)cc1-c1cc(-n2ncc(C)cc2=O)ncc1C(=O)Nc1nnc(C#CC2CC2)s1 [Compound 435]
The IC50 of the first is higher: 6.6 nM for the first, under 0.25 nM for the second.

First: Cc1cc(C#Cc2nnc(NC(=O)c3ccncc3-c3cc(Cl)ncc3OC(F)F)s2)n[nH]1 [Compound 106]
Second: Cn1cc(-c2cc(Cl)ncc2OC(F)F)c(C(=O)Nc2nnc(C#CC3CC3)s2)cc1=O [Compound 74]
The IC50 of the first is lower: under 0.25 nM for the first, 0.73 nM for the second. The first is the more potent here.

First: COc1cnc(Cl)cc1-c1cc(-c2cn(C)nn2)ccc1C(=O)Nc1nnc(C#CC2CC2)s1 [Compound 300]
Second: COc1cnc(Cl)cc1-c1cc(C2(C(=O)O)CC2)ccc1C(=O)Nc1nnc(C#CC2CC2)s1 [Compound 250]
The IC50 of the first is 2.6-fold lower: 0.5 nM for the first, 1.3 nM for the second.

First: Cc1nnc(Cn2cc(-c3cc(C(F)F)ccc3Cl)c(C(=O)Nc3ncc(C#CC4CC4)s3)cc2=O)o1 [Compound 114, 5-(2-chloro-5-(difluoromethyl)phenyl)-N-(5-(cyclopropylethynyl)thiazol-2-yl)-1-((5-methyl-1,3,4-oxadiazol-2-yl)methyl)-2-oxo-1,2-dihydropyridine-4-carboxamide]
Second: O=C(Nc1nnc(C#CC2CC2)s1)c1cnc(-n2ncccc2=O)cc1-c1cc(C(F)F)ncc1Cl [Compound 463]
The IC50 of the first is higher: 0.26 nM for the first, under 0.25 nM for the second.

First: COc1cnc(C(F)F)cc1-c1cc(CC#N)ccc1C(=O)Nc1ncc(C#CC2CC2)s1 [Compound 193]
Second: COc1cnc(C(F)F)cc1-c1cc(-c2noc(C)n2)ncc1C(=O)Nc1nnc(C#CC2CC2)s1 [Compound 428]
The IC50 of the first is higher: 2.5 nM for the first, under 0.25 nM for the second.

First: COc1cnc(Cl)cc1-c1cn(C)c(=O)cc1C(=O)Nc1nnc(C#CC2CC23CC3)s1 (centres unmarked) [Compound 107]
Second: CNC(=O)Cn1cc(-c2cc(Cl)ncc2OC)c(C(=O)Nc2nnc(C#CC3CC3)s2)cc1=O [Compound 104]
The IC50 of the first is 2.5-fold higher: 0.76 nM for the first, 0.31 nM for the second.

Going from COc1cnc(Cl)cc1-c1cc(C2(C(=O)N(C)C)CC2)ccc1C(=O)Nc1nnc(C#CC2CC2)s1 [Compound 234] to COc1cnc(C(F)F)cc1-c1cc(-n2ncc(OC)c(Cl)c2=O)ncc1C(=O)Nc1nnc(C#CC2CC2)s1 [Compound 452], the IC50 falls from 34 nM to under 0.25 nM. The second is the more potent here.

First: COc1cc(N2CCOCC2)c(C(F)(F)F)cc1-c1cnccc1C(=O)Nc1nnc(C#CC2CC2)s1 [Compound 325]
Second: COc1cnc(C(F)F)cc1-c1cc(-c2cnn(C3CCOCC3)c2)ccc1C(=O)Nc1nnc(C#CC2CC2)s1 [Compound 188]
The IC50 of the first is lower: under 0.25 nM for the first, 1.9 nM for the second. The first is the more potent here.

Compound CNC(=O)Cn1cc(-c2nc(C(F)(F)F)ccc2OC)c(C(=O)Nc2nnc(C#CC3CC3)s2)cc1=O [Compound 52] has an IC50 of 2.4 nM.
